Patent US6531582B1, “2-O-(9z,12z-octadecadienoyl)-3-O-[α-D-galactopyranosyl-(1″-6′)-O-α-D-galactopyranosyl]glycerol and pharmaceutical composition containing the same” (priority 2000, dated 2003)
“Also recorded” adds a separate entry of the source.

How the values were obtained:
edema of arthritis = test: Inhibitory effect on edema of arthritis (Zymosan-A/Freund's adjuvant induced paw edema); assay type: in vivo; conditions: albino rats; for inhibitory effect on edema: test for edema induction
Description: In order to observe the inhibitory effect on edema of the pharmaceutical composition of the present invention, 6 albino rats weighing 200 g were used per test group to induce edema by injecting the mixture of 0.5 ml of Zymosan-A (20 mg/ml/kg) and 0.5 ml of Freund's adjuvant into ST36 position of left paw and then observed for the progress of edema for 70 days by taking a photograph before and after induction of edema. The water extract and organic solvent fractions of the pharmaceutical composition of the present invention were respectively constituted in the concentration of 0.6 mg/ml and then orally administered for 14 days to albino rats in an amount of 1 ml per kg of body weight once a day to determine the inhibitory effect on edema. As the test sample, the organic solvent fractions of the pharmaceutical composition including ABE, ABB, ABW, CBE, CBB, CBW, LNE, LNB, LNW, CRB, CRW, SSH and SSW were respectively used. As the result of this test, it was observed that edema was started to induce on day 4 and reached the peak point after about 45 days. The period for this test was established as 70 days after edema induction to observe the inhibitory effect on edema of the extracts of the present invention. As the result, the edema size was measured using a precision gauge.
The inihibitory effect on edema of the compound according to the present invention as measured after 70 days have passed are listed in the following Tables 2 and 3 and FIG. 4.

[1] = system: CAM formation induced by synovial cells; test: Angiogenesis of synovial cells in chorioallantoic membrane (CAM) of fertilized egg; assay type: in vivo; conditions: 10 μg/ml on CAM, synovial cells injected, compared to control group
Description: In order to determine the effect of the organic solvent fractions on the angionenesis of synovial cells using the cells separated in Experiment 2, synovial cells were injected into fertilized egg and then incubated in an incubator at 37° C. for 3 days to observe the formation of chorioallantoic membrane (CAM). In the present state, the fractions separated according to the above method were respectively distributed on CAM at the concentration of 10 μg/ml to observe the degree of CAM decrease.

[2] = system: NO formation in RAW 264.7 cell lines; test: NO formation in macrophage cells stimulated by lipid polysaccharide (Greiss reagent); assay type: cell-based; conditions: 10 μg/ml, LPS-stimulated RAW 264.7
Description: FIG. 7 is (a) a bar graph showing the inhibition of NO formation when Raw 264.7 cell lines are treated with the organic solvent fraction of a single drug of the pharmaceutical composition at the concentration of 10 μg/ml for 24 hours an then stimulated with LPS, and (b) a bar graph showing the inhibition of NO formation when the cell lines treated with CBB fraction and LNE fraction as the organic solvent fractions are stimulated with LPS according to the same manner as above (a).
In order to identify whether the extracts obtained according to the present invention can inhibit the synthesis of nitric oxide (NO) as the potent inducer of inflammation in blood due to edema as above, macrophage RAW 264.7 cell lines were distributed in a 96-well microplate at the concentration of 10^3 cells per well and then incubated for 12 hours. Then, lipid polysaccharide was added to the plate at the concentration of 50 ng/well to stimulate the cells for 2 hours. The respective organic solvent fractions were added to the plate to the final concentration of 10 μg/ml followed by addition of 50 μl of Greiss reagent solution, and then allowed to react together at room temperature. Then, the absorbance of the plate was measured at 540 nm of ELISA (enzyme-linked immunosorbent assay) reader. […]

Raw 264.7 cell lines [3] = test: Induction of apoptosis of macrophages; assay type: cell-based; conditions: Raw 264.7, 24 hours, microscopy
Description: (§1) In order to determine whether the compound identified as the effective component of the pharmaceutical composition separated according to the present invention can induce the apoptosis of Raw 264.7 cell lines as macrophage involved in inflammatory reaction and synovial cells, the cells were distributed on 5% DMEM medium supplemented with penicillin/streptomycin in a 6-well culture dish at the concentration of 10^4 cells and then incubated at 37° C. for 24 hours while adding the extractions as above at the concentration of 10 μg/ml to observe the reaction. Apoptosis was examined by taking a photograph of apoptosis-induced cells under a polarizing microscope of 200 magnifications.

synovial cells = test: Induction of apoptosis of synovial cell lines; assay type: cell-based, human; conditions: 24 hours, microscopy
Description: The synovial cells separated from outpatients suffering from rheumatoid arthritis were distributed on 5% DMEM medium supplemented with penicillin/streptomycin in a 6-well culture dish at the concentration of 10^4 cells and then incubated for 24 hours at 37° C. to observe the surviving cells. In order to determine the presence or absence of cells and the proliferating state of cells, apoptosis-induced cells were examined by taking their photographs under a phase-contrast microscope of 200 magnifications.
as §1

Raw 264.7 cell lines [4] = test: Effect on cell cycle of macrophage cells (flow cytometry); assay type: cell-based; conditions: Raw 264.7, LPS-stimulated, 20 μg/ml
Description: (§2) Two kinds of cells were incubated as in Experiment 6 and then washed with PBS (phosphate-buffered saline). LPS was distributed on the respective dishes at the concentration of 50 μg/ml to stimulate the cells. Then, the extract according to the present invention was added over 2 hours so as to make the final concentration of 20 μg/ml. The supernatant was removed, washed with PBS and then treated with trypsin. The cells were harvested, introduced into Eppendorf tube and then centrifuged at 1,000 rpm for 5 minutes to remove the supernatant. The residue was fixed with addition of 1 ml of 100% ethanol. At this time, the mixture of 5 μg/ml propidium iodide and RNAse was separately prepared. The fixed cells were centrifuged to remove the supernatant and then washed once with PBS. Simultaneously, the staining agent as previously prepared above was added to the fixed cells and then warmed in an incubator at 37° C. for 30 minutes. The cells stained with propidium iodide was sealed with foil, stored at 4° C. and then subjected to a flow cytometry analysis using FACscan (Becton Dickinson, Calif.) as the analyzing apparatus.

synovial cell lines = test: Effect on cell cycle of synovial cell lines (flow cytometry); assay type: cell-based, human; conditions: LPS-stimulated, 20 μg/ml
Description: as §2

iNOS = test: Inhibition of iNOS expression at the level of transcription through RT-PCR; assay type: cell-based, human; conditions: FIG. 12a, lanes 1-8; 50 μg/ml, LPS-stimulated
Description: (§3) In order to identify the ingredient having an inhibitory activity against COX-II and inducible nitric oxide synthetase (iNOS) as the causal factors of rheumatoid arthritis in the extract used as the effective component of the pharmaceutical composition according to the present invention as in Experiment 7 above, the cells were distributed in T75 flask at the concentration of 10^5 cells, incubated for 7 days and then stimulated for 2 hours by introducing LPS in the flask at the concentration of 50 ng/ml. Then, the extract of the present invention was added so as to make the final concentration of 50 μg/ml. The cells were harvested into a 1.5 ml Eppendorf tube and centrifuged with 15,000 rpm at 4° C. for 15 minutes to remove the supernatant. 200 μl of RNAzol solution was added to the residue followed by addition of 50 μl of chloroform. The cells were lysed by careful pippeting, and then centrifuged with 15,000 rpm at 4° C. for 15 minutes to recover a total RNA, which was then precipitated at 4° C. for 15 minutes by adding the same volume of isopropanol, washed once with 75% ethanol and then dried. The cell lysate was dissolved by adding 20 μl of RNase free D2O and then warming the mixture at 60° C. for 30 minutes. […]

COX-II = test: Inhibition of COX-II expression at the level of transcription through RT-PCR; assay type: cell-based, human
Description: as §3

[5] = system: cartilage and bone of arthritic joint; test: Joint rupture in edema-inhibited albino rats by X-ray analysis; assay type: in vivo; conditions: edema-induced albino rats, oral, about 70 days
Description: FIG. 13 is X-ray photograph to show the 70-days inhibitory effect on edema as one of chronic and degenerative osteopathological symptoms of arthritis by treating the induced edema with respective fractions obtained as the organic solvent fractions of the pharmaceutical composition in an amount of 75 μg/ml for 2 weeks via oral route.
The respective water extract and organic solvent fractions were orally administered for 14 days at the concentration of 75 μg/ml to investigate their inhibitory effect on edema as in Experiment 1. The test albino rats were anesthetized to take X-ray photograph.

[6] = system: nogo-A expressed U-373 MG glioblastoma cell line; test: Therapeutic effect on vertebral neuroparalysis (neurite regeneration in nogo-A expressing cells); assay type: cell-based; conditions: nogo-A expressed U-373 cell lines, phase-contrast microscopy
Description: Simultaneously, it was also observed whether neurites can be regenerated by treatment with neuronal growth factor (NGF) or whether the fractions of the present invention can provide the same effect, by taking a photograph with a phase-contrast microscope of 200 magnifications.

[7] = Effect of the compounds separated from Cibotii rhizoma on arthritis; conditions: summary statement
smooth muscle = conditions: cited from earlier work

With “2-O-(9z,12z-octadecadienyl)-3-O-[α-galactopyranosyl-(1″-6′)-O-α-D-galactopyranosyl]glycerol [CBB-13]” as the molecule, how does the “edema size, Before treatment” value (edema of arthritis; Table 3 (unit not given), oral, baseline before treatment, in mm) read?
The value was 14.4 ± 2.

And the “edema size, After treatment” value (edema of arthritis; Table 3 (unit not given), oral, measured after 70 days, in mm)?
The value was 2.5 ± 1.

And the “inhibitory effect on edema” value (edema of arthritis)?
Its value is “potent inhibitory effect on edema; also recorded: most significant”.

What about the “inhibition of induction of CAM formation” value [1] of the same molecule?
Its value is “more strongly inhibited the induction of CAM formation”.

What about the “inhibition of NO formation” value [2] of the same molecule?
The value was “stronger inhibitory effect on NO formation”.

And the induction of apoptosis (Raw 264.7 cell lines [3])?
The induction of apoptosis was “more strongly inducing the apoptosis”.

And the induction of apoptosis (synovial cells)?
The induction of apoptosis was “more strongly inducing the apoptosis”.

What about the “effect on cell cycle” value (Raw 264.7 cell lines [4]) of the same molecule?
The value was “induced the apoptosis”.

What about the “effect on cell cycle” value (synovial cell lines) of the same molecule?
The value was “pattern of G0/G1 arrest”.

And the “effect on iNOS expression (RT-PCR, band near 278 bp)” value (iNOS)?
The value was “have an effect on the protein expression”.

And the “effect on COX-II expression (RT-PCR)” value (COX-II; FIG. 12a, lanes 1-8, 50 μg/ml, LPS-stimulated)?
The value was “inhibitory effect at the level of transcription”.

And the “effect on COX-II expression (RT-PCR)” value (COX-II; FIG. 12c, respective fractions)?
Its value is “strongly inhibit the protein expression”.

What about the “osteogenesis (X-ray)” value [5] of the same molecule?
Its value is “effect of stimulating the osteogenesis”.

What about the “rupture of cartilage in arthritic portion (X-ray)” value [5] of the same molecule?
Its value is “inhibits the rupture of cartilage in arthritic portion”.

And the regeneration of neurites [6]?
The regeneration of neurites was “neurites were lengthened”.

What about the “pharmacological effect on arthritis” value [7] of the same molecule?
The value was “most excellent pharmacological effect”.

With `Cc1c(O)c2c(c(C)c1CCO)C(=O)C(C)(C)C2` [CBB-11, onitin] as the molecule, how does the “pharmacological effect on arthritis” value [7] read?
Its value is “moderate pharmacological effect”.

What about the “activity for relaxing smooth muscle” value (smooth muscle) of the same molecule?
Its value is “activity for relaxing smooth muscle”.

With `CC[C@H](CC[C@@H](C)[C@H]1CC[C@H]2[C@@H]3CC=C4C[C@@H](O[C@@H]5O[C@H](CO)[C@@H](O)[C@H](O)[C@H]5O)CC[C@]4(C)[C@H]3CC[C@]12C)C(C)C` [CBB-12, daucosterol] as the molecule, how does the “inhibitory effect on edema” value (edema of arthritis) read?
The value was “potent inhibitory effect on edema”.
